Test results from patent US20220144853A1, “IMIDAZOLINE DERIVATIVES AS CXCR4 MODULATORS” (Université de Paris, priority 2019, published 2022).
Counter-ions that a name gives are not always drawn.

Test system: IFN production by activated PBMCs
Assay: IFN production by R848-activated PBMCs from healthy donors, twINNE reporter cell line
Type: cell-based, human
Details: Homo sapiens, PBMC, means of two results over 2 healthy donors, R848 5 μg/mL, IT1t: mean over all experiments, read-out: IC50 of anti-inflammatory activity (IFN production)
Method: 2) The blood from healthy donors was also obtained from “Etablissement Français du Sang” (convention #19/EFS/029), Paris, France.
In vitro experiments were performed using human peripheral blood mononuclear cells (PBMCs) isolated by density centrifugation from peripheral blood leukocyte separation medium, lymphoprep (Stemcell Technologies).
PBMCs were cultured in RPMI 1640 (Sigma-Aldrich, MO, USA) containing 10% heat-inactivated fetal bovine serum (Sigma-Aldrich, MO, USA) at 37° C./5% CO2.
2) The PBMCs used herein were prepared as described in part A “immune cells preparation”, section 2) above. PBMCs were seeded at 4.10^6/mL. […] Cells were then stimulated with the TLR7/8 agonist resiquimod—R848 (Sigma-Aldrich, MO, USA) at 5 μg/mL.
2) To quantify the secretion of functional IFN, a biological assay based on a stable cell line where luciferase reporter gene is controlled by five Interferon-Stimulated Response Elements (twINNE cell line) was used. It is important to note that the twINNE cell line is the same as the above mentioned STING-37 cell line but with constitutively expressed nanoluciferase. First, supernatants of R848-stimulated PBMCs (see part B, section 2) above) were harvested after 24 h of stimulation and frozen at −20° C. for storage. Then, supernatants were dispensed in culture wells of a 96-well plate containing 35.103 twINNE cells per well in Dulbecco's Modified Eagle's Medium supplemented with 10% Foetal Bovine Serum, 100 U/mL Penicillin and 100 μg/mL Streptomycin (1% Pen-Strep) and 1 mM glutamine (Sigma-Aldrich, MO, USA) at 37° C./5% […]. After 24 h of culture, luciferase activity was determined by adding 60 μL of Bright-Go reagents (Promega, Wisconsin, USA) to culture wells and measuring bioluminescence with EnSpire Multimode Plate Reader (PerkinElmer, Massachusetts, USA). When stated, for IC50 calculation, dose-response curves fitted using the nonlin fit (variable slope) analysis in GraphPad Prism software (GraphPad Software, California, USA).

Row | SMILES | IC50
1 | C1=C(CSC2=N[C@H]3COC[C@H]3N2)N2C(=N[C@@H]3COC[C@@H]32)S1 (mixture of isomers) [Example 36, mixture of (4aS,7aR)-3-((((3aS,6aR)-3a,4,6,6a-tetrahydro-1H-furo[3,4-d]imidazol-2-yl)thio)methyl)-4a,5,7,7a-tetrahydrofuro[3′,4′:4,5]imidazo[2,1-b]thiazole dihydrochloride and (4aR,7aS)-3-((((3aR,6aS)-3a,4,6,6a-tetrahydro-1H-furo[3,4-d]imidazol-2-yl)thio)methyl)-4a,5,7,7a-tetrahydrofuro[3′,4′: 4,5]imidazo[2,1-b]thiazole dihydrochloride] | ≥ 31 µM
2 | CC1(C)CN=C(SCC2=CSC3=N[C@H]4CCCC(C4)N23)N1 (racemic) [Example 23, cis-3-(((5,5-dimethyl-4,5-dihydro-1H-imidazol-2-yl)thio)methyl)-6,7,8,9-tetrahydro-5H-5,9-methanothiazolo[3,2-a][1,3]diazocine dihydrochloride] | ≥ 31 µM
3 | CCCCC1CN=C(SCC2=CSC3=N[C@H]4CCCCC4N23)N1 (mixture of isomers) [Example 54, trans-3-(((5-butyl-4,5-dihydro-1H-imidazol-2-yl)thio)methyl)-4a,5,6,7,8,8a-hexahydrobenzo[4,5]imidazo[2,1-b]thiazole dihydrochloride] | ≤ 10 µM
4 | C1=C(CSC2=NCC(Cc3ccccc3)N2)N2C(=N[C@H]3CCCCC32)S1 (mixture of isomers) [Example 55, trans-3-(((5-benzyl-4,5-dihydro-1H-imidazol-2-yl)thio)methyl)-4a,5,6,7,8,8a-hexahydrobenzo[4,5]imidazo[2,1-b]thiazole dihydrochloride] | ≤ 10 µM
5 | C1=C(CSC2=N[C@H]3CCCC[C@@H]3N2)N2C(=N[C@H]3CCCCC32)S1 (mixture of isomers) [Example 56, trans-3-((((3aS,7aS)-3a,4,5,6,7,7a-hexahydro-1H-benzo[d]imidazol-2-yl)thio)methyl)-4a,5,6,7,8,8a-hexahydrobenzo[4,5]imidazo[2,1-b]thiazole dihydrochloride] | ≤ 10 µM
6 | C1=C(CSC2=NCCN2)N2C(=N[C@H]3CCCCC32)S1 (mixture of isomers) [Example 59, trans-3-(((4,5-dihydro-1H-imidazol-2-yl)thio)methyl)-4a,5,6,7,8,8a-hexahydrobenzo[4,5]imidazo[2,1-b]thiazole dihydrochloride] | ≤ 10 µM
7 | CC(C)[C@@H]1N=C2SC=C(CSC3=NCC(C)(C)N3)N2[C@H]1C(C)C (racemic) [Example 62, trans-3-(((5,5-dimethyl-4,5-dihydro-1H-imidazol-2-yl)thio)methyl)-5,6-diisopropyl-5,6-dihydroimidazo[2,1-b]thiazole dihydrochloride] | 10 to 31 µM
8 | CC1(C)CN2C(CSC3=N[C@H]4CCCC[C@@H]4N3)=CSC2=N1 [Example 4, 3-((((3aS,7aS)-3a,4,5,6,7,7a-hexahydro-1H-benzo[d]imidazol-2-yl)thio)methyl)-6,6-dimethyl-5,6-dihydroimidazo[2,1-b]thiazole dihydrochloride] | ≤ 10 µM
9 | CC1(C)CN2C(CSC3=N[C@@H]4CCCC[C@@H]4N3)=CSC2=N1 [Example 5, 3-((((3R,7aS)-3a,4,5,6,7,7a-hexahydro-1H-benzo[d]imidazol-2-yl)thio)methyl)-6,6-dimethyl-5,6-dihydroimidazo[2,1-b]thiazole dihydrochloride] | 10 to 31 µM
10 | C1=C(CSC2=NCCN2)N2CCN=C2S1 [Example 6, 3-(((4,5-dihydro-1H-imidazol-2-yl)thio)methyl)-5,6-dihydroimidazo[2,1-b]thiazole dihydrochloride] | 10 to 31 µM
11 | CC1(C)CN2C(CSC3=NCCN3)=CSC2=N1 [Example 8, 3-(((4,5-dihydro-1H-imidazol-2-yl)thio)methyl)-6,6-dimethyl-5,6-dihydroimidazo[2,1-b]thiazole dihydrochloride] | 10 to 31 µM
12 | CC1(C)CN2C(CSC3=NCCCN3)=CSC2=N1 [Example 9, 6,6-dimethyl-3-(((1,4,5,6-tetrahydropyrimidin-2-yl)thio)methyl)-5,6-dihydroimidazo[2,1-b]thiazole dihydrochloride] | ≥ 31 µM
13 | CN1CCN=C1SCC1=CSC2=NC(C)(C)CN12 [Example 11, 6,6-dimethyl-3-(((1-methyl-4,5-dihydro-1H-imidazol-2-yl)thio)methyl)-5,6-dihydroimidazo[2,1-b]thiazole dihydrochloride] | ≤ 10 µM
14 | CC1(C)CN2C(CSC3=NCCCCN3)=CSC2=N1 [Example 12, 6,6-dimethyl-3-(((4,5,6,7-tetrahydro-1H-1,3-diazepin-2-yl)thio)methyl)-5,6-dihydroimidazo[2,1-b]thiazole dihydrochloride] | ≥ 31 µM
15 | CCCCC1CN=C(SCC2=CSC3=NC(C)(C)CN23)N1 (centres unmarked) [Example 13, 3-(((5-butyl-4,5-dihydro-1H-imidazol-2-yl)thio)methyl)-6,6-dimethyl-5,6-dihydroimidazo[2,1-b]thiazole dihydrochloride] | ≤ 10 µM
16 | CC1(C)CN=C(SCC2=CSC3=NCCCN23)N1 [Example 14, 3-(((5,5-dimethyl-4,5-dihydro-1H-imidazol-2-yl)thio)methyl)-6,7-dihydro-5H-thiazolo[3,2-a]pyrimidine dihydrochloride] | ≥ 31 µM
17 | CC1(C)CN=C(SCC2=CSC3=NCCCCN23)N1 [Example 15, 3-(((5,5-dimethyl-4,5-dihydro-1H-imidazol-2-yl)thio)methyl)-5,6,7,8-tetrahydrothiazolo[3,2-a][1,3]diazepine dihydrochloride] | ≥ 31 µM
18 | CC1(C)CN2C(CSC3=NC(C)(C)C(C)(C)N3)=CSC2=N1 [Example 16, 6,6-dimethyl-3-(((4,4,5,5-tetramethyl-4,5-dihydro-1H-imidazol-2-yl)thio)methyl)-5,6-dihydroimidazo[2,1-b]thiazole dihydrochloride] | ≥ 31 µM
19 | CCCCC1CN2C(CSC3=NCC(C)(C)N3)=CSC2=N1 (centres unmarked) [Example 19, 6-butyl-3-(((4,4-dimethyl-4,5-dihydro-1H-imidazol-2-yl)thio)methyl)-5,6-dihydroinidazo[2,1-b]thiazole dihydrochloride] | 10 to 31 µM
20 | CC1(C)CN=C(SCC2=CSC3=NC(C)(C)C(C)(C)N23)N1 [Example 20, 3-(((5,5-dimethyl-4,5-dihydro-1H-imidazol-2-yl)thio)methyl)-5,5,6,6-tetramethyl-5,6-dihydroimidazo[2,1-b]thiazole dihydrochloride] | 10 to 31 µM
21 | CC1(C)CN=C(SCC2=CSC3=NCCN23)N1 [Example 21, 3-(((5,5-dimethyl-4,5-dihydro-1H-imidazol-2-yl)thio)methyl)-5,6-dihydroimidazo[2,1-b]thiazole dihydrochloride] | 10 to 31 µM
22 | CC1(C)CN2C(CSC3=N[C@@H]4CCC[C@@H](C4)N3)=CSC2=N1 [Example 22, 3-((((1R,5S)-2,4-diazabicyclo[3.3.1]non-2-en-3-yl)thio)methyl)-6,6-dimethyl-5,6-dihydroimidazo[2,1-b]thiazole dihydrochloride] | ≥ 31 µM
23 | CC1(C)CN2C(CSC3=NCC4(CC4)N3)=CSC2=N1 [Example 24, 3-(((4,6-diazaspiro[2.4]hept-5-en-5-yl)thio)methyl)-6,6-dimethyl-5,6-dihydroimidazo[2,1-b]thiazole dihydrochloride] | 10 to 31 µM
